This is an account of results in ChEMBL document CHEMBL4825739, “Cannabinoid Receptor Agonists for the Potential Treatment of Pain, Neurological Disorders, Fibrotic Diseases, Obesity, and Many More” (ACS Med Chem Lett, 2021).

Broadly, the EC50 is the concentration that produces a half-maximal response. In general, Emax refers to the size of the effect at its maximum, as opposed to the concentration needed.

What all share (assay type): functional, cell-based
Assay [1] deals with T1, Cannabinoid receptor 1 (Homo sapiens, UniProt P21554). Put plainly: Agonist activity at human CB1 receptor expressed in CHO-K1 cells assessed as […] incubated for 20 mins measured after 60 mins addition of cAMP detect reagent by HTRF analysis. For orientation: cAMP levels reflect the balance of adenylyl cyclase and phosphodiesterase activity.
T1 sequence (P21554 whole entry): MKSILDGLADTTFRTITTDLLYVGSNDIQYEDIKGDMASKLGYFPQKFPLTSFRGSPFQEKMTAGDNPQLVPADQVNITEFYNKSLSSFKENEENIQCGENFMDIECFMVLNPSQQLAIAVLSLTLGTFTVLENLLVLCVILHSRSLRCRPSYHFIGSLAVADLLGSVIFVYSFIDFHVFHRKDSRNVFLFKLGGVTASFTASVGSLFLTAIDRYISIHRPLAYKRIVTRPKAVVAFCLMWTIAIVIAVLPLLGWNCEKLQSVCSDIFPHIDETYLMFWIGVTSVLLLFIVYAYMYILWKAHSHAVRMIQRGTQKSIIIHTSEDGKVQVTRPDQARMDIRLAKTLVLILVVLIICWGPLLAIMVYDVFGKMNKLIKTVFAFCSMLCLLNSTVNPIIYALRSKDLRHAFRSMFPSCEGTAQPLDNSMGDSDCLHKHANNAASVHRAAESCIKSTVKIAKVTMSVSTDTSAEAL
Assay [2] addresses T1, Cannabinoid receptor 1. As to the kind of experiment: Agonist activity at human CB1 receptor expressed in CHO-K1 cells assessed as maximum efficacy incubated for 20 mins measured after 60 mins addition of cAMP detect reagent by HTRF analysis relative to control. Particulars: filed as agonist. On the technique in general: TR-FRET usually uses a lanthanide donor and a delayed reading to cut background.

The target in assay [3] is T2, Cannabinoid receptor 2 (Homo sapiens, UniProt P34972). Put plainly: Agonist activity at human CB2 receptor expressed in CHO-K1 cells assessed as maximum efficacy incubated for 20 mins measured after 60 mins addition of cAMP detect reagent by HTRF analysis relative to control. As to conditions: filed as agonist, time 80.0 min.
T2 sequence (P34972 whole entry): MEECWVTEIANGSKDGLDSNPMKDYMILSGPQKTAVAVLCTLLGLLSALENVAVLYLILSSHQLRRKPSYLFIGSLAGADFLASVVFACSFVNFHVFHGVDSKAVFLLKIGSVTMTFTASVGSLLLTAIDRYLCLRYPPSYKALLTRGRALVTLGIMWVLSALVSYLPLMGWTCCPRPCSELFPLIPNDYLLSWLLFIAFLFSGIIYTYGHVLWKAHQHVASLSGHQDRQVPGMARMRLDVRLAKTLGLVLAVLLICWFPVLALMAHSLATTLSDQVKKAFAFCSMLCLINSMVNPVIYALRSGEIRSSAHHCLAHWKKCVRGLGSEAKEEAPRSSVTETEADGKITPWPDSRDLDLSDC
For assay [4], the target named is T2, Cannabinoid receptor 2. As to the kind of experiment: Agonist activity at human CB2 receptor expressed in CHO-K1 cells assessed as […] incubated for 20 mins measured after 60 mins addition of cAMP detect reagent by HTRF analysis.

With `CC(C)(C)NC(=O)c1c2c(nn1-c1c[n+]([O-])ccn1)CC1CCC2O1` (stereo not given), the concentration for a half-maximal effect (EC50) at Cannabinoid receptor 1 [1] was 2670 nM. For the same molecule, the Emax at Cannabinoid receptor 1 [2] is 80.3%; at Cannabinoid receptor 2 [3], below 50%.
As for `CC(C)(C)NC(=O)c1c2c(nn1-c1cnccn1)CC1CCC2O1` (stereo not given), the EC50 at Cannabinoid receptor 1 [1] worked out at 1650 nM. Moreover, the Emax on Cannabinoid receptor 1 [2] was 85.8%; at Cannabinoid receptor 2 [3], below 50%.
As to `CC(C)(C)[C@@H](CO)NC(=O)c1nn(-c2cnccn2)c2c1C[C@H]1CCC2O1` (single isomer, unassigned), the values for the EC50 at Cannabinoid receptor 1 [1] and at Cannabinoid receptor 2 [4] were 0.09 nM and 422 nM, respectively. The results for the Emax at Cannabinoid receptor 1 [2] and on Cannabinoid receptor 2 [3] were 100% and 111%, respectively.
On to `CC(C)(C)NC(=O)c1nn(-c2ccc(F)cc2F)c2c1CC1CCC2O1` (stereo not given), for which the EC50 was 1.2 nM at Cannabinoid receptor 1 [1] and 108 nM at Cannabinoid receptor 2 [4]. The values for the Emax on Cannabinoid receptor 1 [2] and at Cannabinoid receptor 2 [3] were 95.6% and 99%, respectively.
In the same order, the values of `O=C(NC12CC3CC(CC1C3)C2)c1nn(-c2cnccn2)c2c1CC1CCC2O1` (stereo not given) are 0.02 nM, 16.6 nM, 100% and 111%.
With `CCC(C)(C)c1noc(-c2nn(-c3cnccn3)c3c2CC2CCC3O2)n1` (stereo not given), the EC50 on Cannabinoid receptor 1 [1] is 0.04 nM. The Emax is 99.8% at Cannabinoid receptor 1 [2] and below 50% at Cannabinoid receptor 2 [3].
Turning to `CC(C)(C)NC(=O)c1c2c(nn1-c1c[n+]([O-])ccn1)C1CCC(C2)O1` (stereo not given), the EC50 on Cannabinoid receptor 1 [1] worked out at 7970 nM. In addition, the Emax at Cannabinoid receptor 1 [2] was 66.3%; at Cannabinoid receptor 2 [3], below 50%.
On the same counts, the results for `CC(C)(C)NC(=O)c1c2c(nn1-c1ccc(F)cc1F)C1CCC(C2)O1` (stereo not given) are 2980 nM, 72.8% and below 50%.
For the molecule `O=C(NC12CC(C1)C2)c1nn(-c2c[n+]([O-])ccn2)c2c1CC1CCC2O1` (stereo not given), the EC50 on Cannabinoid receptor 1 [1] is 0.05 nM; on Cannabinoid receptor 2 [4], 1780 nM. For the same molecule, the figures for the Emax at Cannabinoid receptor 1 [2] and at Cannabinoid receptor 2 [3] were 100% and 91%, respectively.
Consider `O=C(NC12CCC(CC1)CC2)c1nn(-c2c[n+]([O-])ccn2)c2c1CC1CCC2O1` (stereo not given), for which the EC50 on Cannabinoid receptor 1 [1] is 0.02 nM; on Cannabinoid receptor 2 [4] it was 48.5 nM. In addition, the values for the maximal response (Emax) at Cannabinoid receptor 1 [2] and at Cannabinoid receptor 2 [3] were 99.7% and 96.5%, respectively.
Regarding `CC(C)(C)[C@@H](CO)NC(=O)c1nn(-c2cnccn2)c2c1C[C@@H]1CC[C@H]2O1`, the EC50 at Cannabinoid receptor 1 [1] turned out to be 0.56 nM. Besides, the Emax on Cannabinoid receptor 1 [2] was 100%; on Cannabinoid receptor 2 [3] it was below 50%.
Turning to `O=C(NC12CC3CC(CC1C3)C2)c1nn(-c2ccc(F)cc2F)c2c1CC1CCC2O1` (stereo not given), the EC50 is 0.08 nM on Cannabinoid receptor 1 [1] and 0.7 nM on Cannabinoid receptor 2 [4]. The Emax turned out to be 99.1% at Cannabinoid receptor 1 [2] and 98% at Cannabinoid receptor 2 [3].
On the same counts, the results for `CC(C)(C)c1nnc(-c2nn(-c3c[n+]([O-])ccn3)c3c2CC2CCC3O2)s1` (stereo not given) are 0.06 nM, 130 nM, 99% and 94.9%.
In the same order, the values of `O=C(NC1(C(F)(F)F)CCC1)c1nn(-c2cnccn2)c2c1CC1CCC2O1` (stereo not given) are 0.04 nM, 571 nM, 100% and 90.3%.
